# US11351134B2, “Small molecule agents, compositions, and formulations, for internal use, displaying inhibitory activity against gram-positive and/or gram-negative organisms” (NATUREZA, INC., priority 2017, dated 2022)
# Where two headings read alike, the source gives them in different places.
# Tests used:
# S. epidermidis = assay: Broth microdilution MIC of lecithin/chitosan particle compositions; type: cell-based; details: Staphylococcus epidermidis, lecithin/chitosan particle composition, prep. mixture pH 5 or pH 7, maximum concentration tested 10 mg/ml
# Method: (§1) Initially, to determine basic characteristics, each active component was separately mixed, generally under agitated conditions, with water, and each was miscible with water. Each, after being mixed with water, was tested in a broth microdilution assay, against a variety of bacteria using amounts of the each of the lauric acid derivatives, ranging from about 0.0009 wt. % to about 8 wt. %. The bacteria included Escherichia coli, and Staphylococcus aureus (including MRSA strains). The minimum inhibitory concentration (MIC) needed to prevent growth of the target bacteria was evaluated based on a method published by Clinical Laboratory Standards Institute (CLSI), broth microdilution method M-07 (M07). […] Each of the samples containing one of the lauric acid derivatives was compared with a positive control, decanoic acid.
# (§2) For TABLES 1 to 3, compositions were generally prepared as described above, and as further outlined in this paragraph. For these examples, the active component, as a lauric acid derivative or lauric acid, was suspended in an organic solvent, chloroform, and then mixed with water, under robust agitation. The amount of water to the amount of chloroform was at least about 2:1, and could be as high as 10:1. Chloroform was then evaporated (e.g., under vacuum using a freeze dryer). After removal of the chloroform, a 2.2% lecithin solution in an acetate buffer (e.g., 98 mM acetic acid and 2 mM sodium acetate) was prepared and added, so the final amount of the active component was about 1 part active component mixture and about 9 parts of the 2.2% lecithin solution. Of course, it is noted that other ranges to achieve final amount of the active component as described above (e.g., active component mixture and lecithin solution) may also be utilized. Cholesterol could also be optionally added. The mixture of lecithin and the active component was mixed and sonicated, and then a solution of about 1.5% chitosan was added. Thereafter, the entirety of the mixture containing the lecithin and the active component was further blended, in which a final ratio was about 1 part active component to about 9 parts of the 2.2% lecithin solution to about 10 parts of the 1.5% chitosan solution. The pH was then varied, to a pH of 5, or a pH of 7, or a pH of 9. In some mixtures having a pH of 7, a chemical agent imparting a positive charge to the chitosan was included in a form of glycol chitosan. In these tests, the chemical agent used was glycol. In these examples, the amount of chemical agent, glycol was about one molecule glycol moiety to one molecule chitosan sacharide unit; higher amounts of glycol moieties are also acceptable, while lower amounts of glycol moieties were often found to decrease overall inhibitory activity associated with a composition when formed and tested in vitro. It is noted that negatively charged chitosan containing particles were prepared. […] After mixing, the mixtures could each be filtered through a […] filter. In some tests, the mixtures were sonicated before filtering. Sonication produced small particles. In some studies, particles were freeze dried as a powder (generally, after mixing, sonicating and filtering).
# (§3) The positive controls were prepared and evaluated in a similar manner. All prepared samples were tested using a broth microdilution test.
# E. coli = assay: as above; type: cell-based; details: maximum concentration tested 10 mg/ml; for MIC: Escherichia coli; for MIC (mg/ml) for E. coli (chitosan prep. mixture was at pH 5 or at pH 7): prep. mixture pH 5 or pH 7
# Method: as §1, §2, §3
# Escherichia coli = assay: Broth microdilution (CLSI M07) of active component mixed with water only; type: cell-based; details: active component mixed with water only (miscible state); about 0.0009 wt. % to about 8 wt. %
# Method: as §1
# [1] = test system: Staphylococcus aureus (including MRSA strains); assay: as above; type: cell-based; details: active component mixed with water only (miscible state); about 0.0009 wt. % to about 8 wt. %
# Method: as §1
# [2] = test system: Gram-positive pathogens and Gram-negative pathogens; assay: In vitro inhibitory activity of chitosan- or carrier-containing particles; type: cell-based; details: synthesis (with chitosan) at pH 7 with positively charged chitosan
# Text: as §2, §3
# This also occurs when the chitosan- or carrier-containing particle includes an active component that has a log P value that is less than 4 and includes a methyl and/or ethyl side chain (e.g., 12-amino-1-dodecanoic acid methyl ester). […]
# [3] = test system: representative Gram-positive pathogens and yeast; assay: Broth microdilution of lecithin/chitosan compositions, sonicated and/or filtered; type: cell-based; details: composition with lecithin and chitosan
# Text: In a further preparation, lauric acid derivative, 12-aminododecanoic acid or 12-amino-1-dodecanoic acid methyl ester, was suspended individually (and independently) in an organic solvent, chloroform, and mixed with water, generally under agitated conditions. Here, for each sample, the amount of water to the amount of chloroform was at least 2:1, and was as high as 10:1. This was followed by chloroform evaporation, generally under vacuum using a freeze dryer. After removal of the chloroform, a lecithin solution was added to each sample. The lecithin was in a solution of acetic acid (e.g., 98 mM acetic acid and 2 mM sodium acetate), in which the amount of lecithin in solution was between about 1% to 5%. With addition of lecithin, each sample mixture contained up to about 4.8% lecithin (or generally about 5% or less), and up to about 7.8% of one of the lauric acid derivatives (or generally about 8% or less). pH of the solution was neutral. It is noted that the lecithin should be in a suitable form (e.g., solution or granules) acceptable for internal utilization (e.g., pharmaceutical grade). The lecithin may also include cholesterol, or other lecithin variants as described above, with similar results. Chitosan was then added to each of the samples, and each sample was then independently sonicated, followed by independent sterilization by high pressure filtration. […]
# Miscibility with water = type: physicochemical; details: mixed with water under agitated conditions
# Method: as §1
# [4] = test system: representative bacteria tested in vitro, whether Gram-positive or Gram-negative; assay: In vitro growth inhibition of active component suspended in chloroform, mixed with water, chloroform evaporated; type: cell-based; details: pH neutral or acidic, no lecithin or chitosan
# Method: In another preparation, each of the lauric acid derivatives of TABLE 4 was independently suspended in an organic solvent, chloroform, and then mixed with water, generally under agitated conditions. This was followed by chloroform evaporation, generally under vacuum, using a freeze dryer. The same preparations were evaluated against the positive control, decanoic acid. Here, for all samples, the amount of water to the amount of chloroform was at least 2:1, and was as high as 10:1. The pH was neutral or was acidic. For each of the lauric acid derivatives as so prepared independently, there was no evidence of any growth inhibitory activity (growth inhibition) against representative bacteria tested in vitro, whether Gram-positive or Gram-negative.
# [5] = read-out: MIC (mg/ml) for S. epidermidis (chitosan prep. mixture was at pH 5 or at pH 7)
# [6] = lecithin/chitosan particle composition
Compound,MIC (S. epidermidis; [5]) [mg/mL],"MIC (E. coli; lecithin/chitosan particle composition, prep. mixture pH 9, read-out: MIC (mg/ml) for E. coli (chitosan prep. mixture was at pH 9)) [mg/mL]","MIC (E. coli; lecithin/glycol chitosan particle composition, prep. mixture pH 7, read-out: MIC (mg/ml) for E. coli (chitosan prep. mixture was at pH 7 with glycol chitosan)) [mg/mL]",MIC (mg/ml) for E. coli (chitosan prep. mixture was at pH 5 or at pH 7) (E. coli; [6]),"Inhibitory activity against Gram-negative bacteria (e.g., E. coli) (Escherichia coli)","Inhibitory activity against Gram-positive bacteria (e.g., S. aureus) [1]",Inhibitory activity against both Gram-positive pathogens and Gram-negative pathogens [2],Growth inhibitory activity against representative Gram-positive pathogens and yeast [3],"MIC (S. epidermidis; Table 3, read-out: MIC (mg/ml) S. epidermidis (chitosan prep. mixture at pH 5 or at pH 7)) [mg/mL]",Miscibility with water (Miscibility with water),Growth inhibitory activity against representative bacteria [4]
NCCCCCCCCCCCC(=O)O [12-aminododecanoic acid],10,10,10,— (no inhibitory activity),"does not, in the miscible state, demonstrate inhibitory activity","does not, in the miscible state, demonstrate inhibitory activity",stronger inhibitory activity as well as broad spectrum activity,exhibited growth inhibitory activity,–,–,–
"CCCCCCCCCC(=O)O [decanoic acid, reference compound]",10,–,–,— (no inhibitory activity),–,–,–,–,10,not miscible in water,did not demonstrate growth inhibitory activity
